In US20060188576A1, “Pirenzepine ophthalmic gel” (priority 2001, published 2006):
Structures can show the parent of a compound that is named as a salt. Where two headings read alike, the source gives them in different places.

What was measured:
[1] = solution in up to 2% strength, topical ocular, adult volunteers; cited from earlier work
[2] = Stability of pirenzepine in solution; assay type: physicochemical; conditions: pH 5
chick model of myopia = conditions: subconjunctival injections; cited from earlier work
myopia [3] = conditions: stump-tailed monkeys; cited from earlier work
myopia [4] = conditions: chicks; cited from earlier work
myopia [5] = conditions: tree shrews; cited from earlier work
myopia [6] = conditions: cited from earlier work

Row | Structure (SMILES) | comfort and systemic effects [1] | stability in solution [2] | axial eye growth (chick model of myopia) | development of myopia (myopia [3]) | development of myopia (myopia [4]) | development of myopia (myopia [5]) | development of myopia (myopia [6]; humans) | effectiveness as myopia therapy (myopia [6]; mild cycloplegic agent, several studies)
1 | CN1CCN(CC(=O)N2c3ccccc3C(=O)Nc3cccnc32)CC1 [Pirenzepine, 5,11-dihydro-11-[(4-methyl-1-piperazinyl)acetyl]-6H pyrido [2,3-b][1,4]-benzodiazepin-6-one dihydrochloride monohydrate] | comfortable and without systemic effects | stable in solution especially at pH 5 | attenuated axial eye growth | – | – | – | – | –
2 | CN1[C@@H]2CC[C@H]1C[C@@H](OC(=O)C(CO)c1ccccc1)C2 (stereo partly drawn) [atropine] | – | – | attenuated axial eye growth | prevents the development of myopia | prevents the development of myopia | prevents the development of myopia | prevents the development of myopia | –
3 | CCN(Cc1ccncc1)C(=O)C(CO)c1ccccc1 (stereo not drawn) [tropicamide] | – | – | – | – | – | – | – | effective in a number of studies but failed in other studies
